Values joined by “and” are separate entries in the source; they are usually repeats but may differ in a detail not shown here. Identical values can stand only once. Like-named read-outs stand apart in the source and are kept apart here.
Experiment: Preliminary assessment of in vivo pharmacokinetics in rats
Conditions: for MRT inf: read-out: MRT0-∞
[1] = rat, plasma, iv, 2 mg/kg, rats, intravenous 2 mg/kg, individual animals 1-3
[2] = rat, plasma, iv, 2 mg/kg, rats, intravenous 2 mg/kg, mean
[3] = rat, plasma, oral, 20 mg/kg, intragastric 20 mg/kg, individual animals 4-6, read-out: Plasma drug concentrations in rats
[4] = rat, plasma, oral, 20 mg/kg, intragastric 20 mg/kg, mean, read-out: Plasma drug concentrations in rats
[5] = rat, plasma, po, 20 mg/kg, rats, intragastric 20 mg/kg, individual animals 4-6
[6] = rat, plasma, po, 20 mg/kg, rats, intragastric 20 mg/kg, mean
[7] = rats, intragastric 20 mg/kg, individual animals 4-6, listed as DC411151
[8] = rats, intravenous 2 mg/kg, individual animals 1-3, listed as DC411151, 2 mg/kg

For `CC(C)Oc1ccc(-c2nc(-c3ccc(CN4CC(C(=O)O)C4)c4ccccc34)no2)cc1C#N.Cl` [Compound A1, 1-((4-(5-(3-cyano-4-isopropoxyphenyl)-1,2,4-oxadiazol-3-yl)naphthalen-1-yl)methyl) azetidine-3-carboxylic acid hydrochloric acid], the clearance [1] was 9.34 mL/min/kg, the AUC0-t (rat, plasma, iv, 2 mg/kg, rats, intravenous 2 mg/kg, individual animals 1-3, read-out: AUC0-t) was 3550 ng·h/mL and the MRT inf [1] was 1.2 h. For the same compound, the Vd (rat, plasma, iv, 2 mg/kg, rats, intravenous 2 mg/kg, individual animals 1-3, read-out: Vss) was 0.672 L/kg, the AUC(0-inf) [2] was 3860 ng·h/mL and the AUC0-t (rat, plasma, iv, 2 mg/kg, rats, intravenous 2 mg/kg, mean, read-out: AUC0-t) was 3850 ng·h/mL. For the same compound, the MRT inf [2] was 1.47 h, the concentration at 0.25 h (rat, plasma, oral, 20 mg/kg, intragastric 20 mg/kg, 0.25 h, mean, read-out: Plasma drug concentrations in rats) was 1270 ng/mL and the concentration at 0.5 h [3] was 3130 ng/mL. The concentration at 0.5 h [4] was 2430 ng/mL, the concentration at 1 h [3] was 2560 ng/mL and the concentration at 1 h [4] was 2570 ng/mL. For the same compound, the concentration at 2 h [3] was 2290 ng/mL, the concentration at 2 h [4] was 1890 ng/mL and the concentration at 4 h [3] was 884 ng/mL. For the same compound, the concentration at 4 h [4] was 787 ng/mL, the concentration at 6 h [3] was 322 ng/mL and the concentration at 6 h [4] was 320 ng/mL. For the same compound, the concentration at 8 h [3] was 65.1 ng/mL, the concentration at 8 h [4] was 62 ng/mL and the concentration at 24 h [3] was 4.33 ng/mL. For the same compound, the concentration at 24 h [4] was 3.25 ng/mL, the bioavailability (rat, plasma, oral, rats, 20 mg/kg by gavage vs 2 mg/kg intravenous, read-out: absolute bioavailability) was 22.8% and the Tmax (rat, plasma, po, 20 mg/kg, rats, 20 mg/kg by gavage, range over animals, read-out: peak time Tmax) was 0.5 to 1 h. The AUC(0-inf) [5] was 9600 ng·h/mL, the half-life [5] was 2.45 h and the AUC0-t (rat, plasma, po, 20 mg/kg, rats, intragastric 20 mg/kg, individual animals 4-6, read-out: AUC0-t) was 9590 ng·h/mL. For the same compound, the Cmax (rat, plasma, po, 20 mg/kg, rats, intragastric 20 mg/kg, individual animals 4-6, read-out: Cmax) was 3070 ng/mL, the MRT inf [5] was 2.55 h and the Tmax (rat, plasma, po, 20 mg/kg, rats, intragastric 20 mg/kg, individual animals 4-6, read-out: Tmax) was 0.5 h. The AUC(0-inf) [6] was 8790 ng·h/mL, the half-life [6] was 2.49 h and the MRT inf [6] was 2.72 h. For the same compound, the Tmax (rat, plasma, po, 20 mg/kg, rats, intragastric 20 mg/kg, mean, read-out: Tmax) was 0.833 h, the AUC0-t [7] was 10100 ng·h/mL and 6710 ng·h/mL and the “AUC0-∞” value [7] was 10100 ng·h/mL and 6720 ng·h/mL. The Cmax [7] was 3130 ng/mL and 2070 ng/mL, the “MRT0-∞” value [7] was 2.62 h and 3.00 h and the t1/2 [7] was 2.5 h and 2.51 h. For the same compound, the clearance classification (rats, intravenous 2 mg/kg) was “low clearance drug”, the “plasma clearance as share of rat liver blood flow (about 55 mL/min/kg)” value (rats, intravenous 2 mg/kg) was 15.7% and the AUC0-t [8] was 4030 ng·h/mL and 3960 ng·h/mL. For the same compound, the “AUC0-∞” value [8] was 4040 ng·h/mL and 3980 ng·h/mL, the CL [8] was 8.26 mL/min/kg and 8.38 mL/min/kg and the “MRT0-∞” value [8] was 1.52 h and 1.69 h. The Vss [8] was 0.752 L/kg and 0.85 L/kg and the t1/2 [8] was 1.15 h and 3.67 h and 4.3 h.

— patent publication US20240208954A1, “OXADIAZOLE COMPOUND, PREPARATION METHOD THEREFOR, PHARMACEUTICAL COMPOSITION AND USE THEREOF” (SHANGHAI INSTITUTE OF MATERIA MEDICA, CHINESE ACADEMY OF …, priority 2020, published 2024)
